Laboratory results: patent US8557737B2, “Methods of altering poppy characteristics” (priority 2005, dated 2013)

Test system: poppy crops
Assay: Example 1: field trial, metsulfuron-methyl 36 or 120 mg/ha at 12-14 leaf and ground cover, morphine crop
Assay type: in vivo, Papaver somniferum
Experimental: All trials were conducted on poppy crops. Seed was treated with Thiram (5.6 g of Thiram 800/kg seed) and Apron (4 g/kg) and sown at a rate of approximately 750 g/ha. Fertilisers were applied at sowing. Most commonly, either 50:50 lime:superphosphate/triple superphosphate at 125 kg/ha, or lime:superphosphate at 250 kg/ha, were mixed with seed and drilled at a depth of 15 mm. In the same operation, NPK (nitrogen:phosphorus:potassium), at various rates, was banded 75 mm below the seed, unless otherwise stated. All crops were subjected to herbicide sprays for weed control, fungicide sprays for disease control, insecticide sprays if appropriate and were irrigated as required.
All spray applications were made with a precision sprayer, using Silvan Lurmark flat-fan, low-drift nozzles (LD110-0015). Spray equipment was calibrated to deliver 153 L water/ha.
At harvest, a 2 m×4 m quadrat was placed in each plot (3 m×6 m, unless otherwise stated) and capsules hand-picked from this area. Capsules were broken up, seed and capsule material separated and weighed. Capsule moisture readings were taken with a moisture meter. Alkaloid yield data were calculated on Pesticide Research Manager (version 5 for Windows) using the formulae below. Briefly, capsule weight was adjusted for moisture to a dry weight, 5% of seed weight was added to this (this amount of capsule material regularly occurs in seed samples after processing) to give a capsule weight per plot. Seed weight was adjusted to 95% of crude weight. Straw weights were determined by multiplying dry capsule weight by 1.3 (estimated amount of stem material in a commercial harvest) and adjusted to 11% moisture. When Lontrel was applied to crops exact capsule and seed weight data were entered. Analyses of variance and a Multiple Range Test were performed on data using Pesticide Research Manager. Significant differences (P=0.05) between treatments are denoted by different lower case letters adjacent to treatment means in the tables of results.
Metsulfuron-methyl (Compound 1) was applied at a rate of 36 or 120 mg/ha at 12-14 leaf and ground cover growth stages, in a morphine crop.

COC(=O)c1ccccc1S(=O)(=O)NC(=O)Nc1nc(C)nc(OC)n1 [Compound 1, metsulfuron-methyl]
CAPSULE/SEED RATIO (36 MG/HA at 12-14LF): 0.603
CROP WEIGHT (36 MG/HA at 12-14LF): 3.78 t/ha
MORPHINE (36 MG/HA at 12-14LF): 24.25 kg/ha
SEED (36 MG/HA at 12-14LF): 2020 kg/ha
STRAW (36 MG/HA at 12-14LF): 1757 kg/ha
STRAW MORPHINE (36 MG/HA at 12-14LF): 1.38%
CAPSULE/SEED RATIO (120 MG/HA at 12-14LF): 0.673
CROP WEIGHT (120 MG/HA at 12-14LF): 3.37 t/ha
MORPHINE (120 MG/HA at 12-14LF): 24.40 kg/ha
SEED (120 MG/HA at 12-14LF): 1710 kg/ha
STRAW (120 MG/HA at 12-14LF): 1660 kg/ha
STRAW MORPHINE (120 MG/HA at 12-14LF): 1.47%
CAPSULE/SEED RATIO (120 MG/HA at GC (ground cover)): 1.253
CROP WEIGHT (120 MG/HA at GC (ground cover)): 3.10 t/ha
MORPHINE (120 MG/HA at GC (ground cover)): 26.19 kg/ha
SEED (120 MG/HA at GC (ground cover)): 1105 kg/ha
STRAW (120 MG/HA at GC (ground cover)): 1999 kg/ha
STRAW MORPHINE (120 MG/HA at GC (ground cover)): 1.31%
